As usually defined, the MIC is the lowest concentration found to suppress growth.

≈ marks a conversion by molar mass, not a printed value.

One test deals with S. aureus. Kind of test: Minimum inhibitory concentration (MIC) against microorganisms. The class given is cell-based. As to conditions: Staphylococcus aureus; Organism: S. aureus. The source says: (§1) Minimum inhibitory concentrations (MICs) against microorganisms (e.g. S. Aureus, E. coli, S. faecalis, P. vulgaris, MRSA, Aspergillus niger, Candida albicans, Klebs. aerogenes, Ent. cloacae, Mycobacterium fortuitum or Aspergillus nidulans) for compounds of the invention may be measured using procedures such as those described in A. J. Drummond and R. D. Waigh “The development of microbiological methods for phytochemical screening” Recent Res. Devel. Phytochem. 4, 143-152 (2000).

Another test concerns S. faecalis. The description is as above. The class given is cell-based. The note with it: Enterococcus faecalis; Organism: S. faecalis.
Description: as §1

In another test the test system is Klebs. aerogenes. The test is described as above. As to conditions: Klebsiella aerogenes; Organism: Klebs. aerogenes. Type of test: cell-based.
Description: as §1

The next test relates to E. coli. The test is described as above. Type of test: cell-based. The note with it: Escherichia coli; Organism: E. coli.
Description: as §1

A further test has as its system P. vulgaris. The description is as above. Type of test: cell-based. As to conditions: Proteus vulgaris; Organism: P. vulgaris.
Description: as §1

For another test, the system named is MRSA. The description is as above. The note with it: Staphylococcus aureus; Organism: MRSA. The class given is cell-based.
Description: as §1

In another test the test system is Ent. cloacae. The description is as above. The class given is cell-based. The note with it: Enterobacter cloacae; Organism: Ent. cloacae.
Description: as §1

Test [1] concerns NFκB protein-DNA complexes. Nature of the test: NFκB DNA-binding assay (gel shift) with macrophage nuclear extracts. Type of test: biochemical, Murine. The note with it: 1 μL of a 1 mM solution, final volume 10 μL; nuclear protein from macrophages exposed to LPS. The method, then:
Murine macrophages (obtained and cultured as described in Cell. Signal. 11(7), 491 (1999), hereinafter referred to as “Reference 1”, the disclosures of which document are hereby incorporated by reference) were exposed to vehicle (see Reference 1) or 1 μg/mL lipopolysaccharide (LPS; the active component of gram-negative endotoxin and a strong activator of the Nuclear Factor kappa B (NFκB) pathway; the particular LPS being obtained from Salmonella minnesota) for 1 hour and nuclear extracts prepared by standard procedures (see Brit. J. Pharmacol. 134, 393 (2001), hereinafter referred to as “Reference 2”, the disclosures of which document are hereby incorporated by reference).
Aliquots of compounds (1 μL of a 1 mM solution) were incubated with 1 μL (0.035 pmol) of a ^32P-labelled 20 bp double-stranded DNA oligonucleotide (representing the consensus binding sequence for NFκB proteins (see Reference 2 and Brit. J. Pharmacol. 134, 1629-1638 (2001), the disclosures of which latter document are hereby incorporated by reference)) for 30 min at room temperature. […] The formation of NFκB protein-DNA complexes and potential inhibition of complex formation in the presence of the above compounds was detected by autoradiography. […]

The test system of another test is Mycobacterium fortuitum. Nature of the test: Minimum inhibitory concentration (MIC) against microorganisms. Type of test: cell-based. As to conditions: Mycolicibacterium fortuitum; Organism: Mycobacterium fortuitum.
Description: as §1

The subject of a further test is Candida albicans. The test is described as above. The class given is cell-based. The note with it: Organism: Candida albicans.
Description: as §1

In a further test the test system is Aspergillus niger. Described as above. The class given is cell-based. The note with it: Organism: Aspergillus niger.
Description: as §1

Another test concerns Aspergillus nidulans. Described as above. Type of test: cell-based. As to conditions: Organism: Aspergillus nidulans.
Description: as §1

Test [2] relates to double-stranded DNA decamer CGACTAGTCG (SEQ ID NO:3). Kind of test: Capillary electrophoresis ligand-DNA binding study. The note with it: drug to DNA ratio up to 4:1. The source says:
(§2) Typically, ligand binding results in a change in migration time of the DNA and sometimes a change in peak shape.
(§3) The following are shown in FIGS. 1-6: • (a) the experimental conditions, including the DNA sequence(s); • (b) the result of sequential addition of ligand; and • (c) the structure of the ligand being investigated. Key to FIGS. 1 to 6: • r0=electropherogram in the absence of drug • rX=(where X is 0.5, 1, 2, 3 or 4) electropherogram in the presence of drug, where the drug:DNA ratio (in terms of concentration) is X:1
This ratio corresponds to the binding ratio.

Another test has as its target DNA. The note with it: binding to DNA; read-out: dissociation constants; cited from earlier work.
For test [3], the system named is double-stranded DNA oligonucleotide AAATTATATTAT (SEQ ID NO:1). Nature of the test: Capillary electrophoresis ligand-DNA binding study. The note with it: AAATTATATTAT versus GGGCCGCGCCGC
Description: Capillary electrophoresis was used to study of ligand-DNA binding (see: (i) Hamdan, I. I.; Skellern, G. G.; and Waigh, R. D. “Separation of pd(GC)12 from pd(AT)12 by free solution capillary electrophoresis”, J. Cromatogr. A. 806, 165-168 (1998); (ii) Hamdan, I. I.; Skellern, G. G.; and Waigh, R. D. “Use of capillary electrophoresis in the study of ligand-DNA interactions”, Nucleic Acids Research 26, 3053-3058 (1998); (iii) Hamdan, I. I.; Skellern, G. G.; and Waigh, R. D. “Ligand binding to oligonucleotides” Methods in Molecular Biology, Vol. 163, “Capillary Electrophoresis of Nucleic acids”, Vol 2, pages 379-391, K. R. Mitchelson and J. Cheng Eds., Humana Press, New Jersey, (2000)).
as §2, §3
This ratio corresponds to the binding ratio. […]

For `CC1(C)S[C@@H]2[C@H](NC(=O)[C@H](N)c3ccc(O)cc3)C(=O)N2[C@H]1C(=O)O` [Amoxicillin, reference compound], the MIC in the test with S. aureus was determined as 0.49 µM (≈ 0.179 µg/mL); against S. faecalis, 0.49 µM (≈ 0.179 µg/mL); against Klebs. aerogenes, 32.3 µM (≈ 11.8 µg/mL); against E. coli, 2 µM (≈ 0.731 µg/mL); in the test with P. vulgaris, 8.1 µM (≈ 2.96 µg/mL); against MRSA, 16.1 µM (≈ 5.88 µg/mL). The MIC against Ent. cloacae worked out at 4 µM (≈ 1.46 µg/mL).

`CC(C)n1cc(NC(=O)c2cc(NC=O)cn2C)cc1C(=O)Nc1cc(C(=O)NCCCN(C)C)n(C)c1` [Example 2, N-[5-({[5-({[3-(Dimethylamino)propyl]amino}carbonyl)-1-methyl-1H-pyrrol-3-yl]amino}carbonyl)-1-isopropyl-1H-pyrrol-3-yl]-4-(formylamino)-1-methyl-1H-pyrrole-2-carboxamide]: the “effect on LPS-stimulated NFκB-DNA binding activity” value in test [1] was “little effect”.

Consider `CC(C)c1sc(NC(=O)c2cc(NC(=O)c3cc(NC=O)cn3C)cn2C)nc1C(=O)NCCCN(C)C` [Example 3, N-[3-(Dimethylamino)propyl]-2-({[4-({[4-(formylamino)-1-methyl-1H-pyrrol-2-yl]carbonyl}amino)-1-methyl-1H-pyrrol-2-yl]carbonyl}amino)-5-isopropyl-1,3-thiazole-4-carboxamide], for which the minimum inhibitory concentration (MIC) in the test with S. aureus worked out at 4.7 µM (≈ 2.55 µg/mL); against Mycobacterium fortuitum, 19 µM (≈ 10.3 µg/mL); against Candida albicans, 76.1 µM (≈ 41.3 µg/mL); with S. faecalis it was 9.5 µM (≈ 5.16 µg/mL); against Aspergillus niger, 76.1 µM (≈ 41.3 µg/mL); in the test with Aspergillus nidulans it was 38.1 µM (≈ 20.7 µg/mL). Also, the minimum inhibitory concentration (MIC) against Klebs. aerogenes was 76.2 µM (≈ 41.4 µg/mL); against E. coli it was greater than 152 µM; against P. vulgaris, 152 µM (≈ 82.6 µg/mL); with MRSA, 38.1 µM (≈ 20.7 µg/mL); with Ent. cloacae it was 76.2 µM (≈ 41.4 µg/mL).

In the case of `CC(C)c1sc(NC(=O)c2cc(NC=O)cn2C)nc1C(=O)Nc1cc(C(=O)NCCCN(C)C)n(C)c1` [Example 7, N-[5-({[3-(Dimethylamino)propyl]amino}carbonyl)-1-methyl-1H-pyrrol-3-yl]-2-({[4-(formylamino)-1-methyl-1H-pyrrol-2-yl]carbonyl}amino)-5-isopropyl-1,3-thiazole-4-carboxamide], the MIC in the test on S. aureus is 4.8 µM (≈ 2.6 µg/mL); in the test on Mycobacterium fortuitum it was 19 µM (≈ 10.3 µg/mL); in the test with Candida albicans it was 38.1 µM (≈ 20.7 µg/mL); with S. faecalis, 9.5 µM (≈ 5.16 µg/mL); against Aspergillus niger, 38.1 µM (≈ 20.7 µg/mL); against Aspergillus nidulans, 9.5 µM (≈ 5.16 µg/mL). The MIC against Klebs. aerogenes was 38.1 µM (≈ 20.7 µg/mL); with E. coli, greater than 152 µM; against P. vulgaris, 152 µM (≈ 82.7 µg/mL); against MRSA, 19.1 µM (≈ 10.4 µg/mL); with Ent. cloacae it was 9.5 µM (≈ 5.16 µg/mL).

Regarding `CC(C)CCn1cc(NC(=O)c2ccc3[nH]c(C(=O)Nc4cc(C(=O)Nc5cc(C(=O)NCCCN6CCOCC6)n(C)c5)n(CCC(C)C)c4)cc3c2)cc1C(=O)Nc1cc(C(=O)NCCCN2CCOCC2)n(C)c1` [Example 17, N^2,N^5-Bis[1-isopentyl-5-({[1-methyl-5-({[3-(4-morpholinyl)propyl]amino}-carbonyl)-1H-pyrrol-3-yl]amino}carbonyl)-1H-pyrrol-3-yl]-1H-indole-2,5-dicarboxamide], the MIC in the test with S. aureus is 19.4 µM (≈ 20.5 µg/mL); in the test on Mycobacterium fortuitum it was greater than 77.7 µM; in the test on Candida albicans it was greater than 77.7 µM; against S. faecalis it was 77.7 µM (≈ 82.2 µg/mL); in the test on Aspergillus niger it was greater than 77.7 µM; against Aspergillus nidulans, 77.7 µM (≈ 82.2 µg/mL). Further, the minimal inhibitory concentration (MIC) against Klebs. aerogenes was 38.9 µM (≈ 41.2 µg/mL); against E. coli, greater than 77.7 µM; in the test with P. vulgaris it was 77.7 µM (≈ 82.2 µg/mL); against MRSA, greater than 77.7 µM; in the test on Ent. cloacae it was greater than 77.7 µM.

Consider `CC(C)c1sc(NC(=O)c2cc(NC(=O)c3ccc4c(c3)CCc3cc(C(=O)Nc5cc(C(=O)Nc6nc(C(=O)NCCCN(C)C)c(C(C)C)s6)n(C)c5)ccc3-4)cn2C)nc1C(=O)NCCCN(C)C` [Example 28, N^2,N^7-Bis[5-({[4-({[3-(dimethylamino)propyl]amino}carbonyl)-5-isopropyl-1,3-thiazol-2-yl]amino}carbonyl)-1-methyl-1H-pyrrol-3-yl]-9,10-dihydro-2,7-phenanthrenedicarboxamide], for which the minimum inhibitory concentration (MIC) in the test with S. aureus is 80 µM (≈ 81.4 µg/mL); in the test on Mycobacterium fortuitum it was 40.1 µM (≈ 40.8 µg/mL); in the test on Candida albicans, greater than 80.3 µM; against S. faecalis, 10 µM (≈ 10.2 µg/mL); against Aspergillus niger, greater than 80.3 µM; with Aspergillus nidulans it was 20.1 µM (≈ 20.4 µg/mL). Further, the MIC was greater than 80.3 µM against Klebs. aerogenes; greater than 80.3 µM in the test with E. coli; greater than 80.3 µM in the test on P. vulgaris; 10 µM (≈ 10.2 µg/mL) in the test with MRSA; greater than 80.3 µM in the test with Ent. cloacae.

Consider `OC(Cn1cncn1)(Cn1cncn1)c1ccc(F)cc1F` [Fluconazole, reference compound], for which the MIC is 81.6 µM (≈ 25 µg/mL) in the test on Candida albicans, greater than 327 µM with Aspergillus niger and 40.8 µM (≈ 12.5 µg/mL) against Aspergillus nidulans.

In the case of `[H]/N=C(/N)N[C@H]1[C@H](O)[C@@H](O)[C@H](O[C@@H]2O[C@@H](C)[C@](O)(C=O)[C@H]2O[C@@H]2O[C@@H](CO)[C@H](O)[C@@H](O)[C@@H]2NC)[C@@H](N/C(N)=N\[H])[C@@H]1O` [Streptomycin, reference compound], the MIC against Mycobacterium fortuitum worked out at 21.5 µM (≈ 12.5 µg/mL).

Consider `Cn1cc(NC(=O)c2cc(NC(=O)c3cc(NC=O)cn3C)cn2C)cc1C(=O)NCCC(=N)N` [distamycin, reference compound], for which, in test [2], the “affinity for the sequence” value is listed as “no affinity”. Moreover, on DNA, the Kd is roughly 10 µM.

As to `Cn1cc(NC(=O)c2cc(NC(=O)CN=C(N)N)cn2C)cc1C(=O)NCCC(=N)N` [netropsin], in test [3], the AT selectivity result was “AT selective”. Further, the Kd on DNA is roughly 10 µM.

Values taken from patent US7700765B2, “DNA minor groove binding compounds” (University of Strathclyde, priority 2001, dated 2010).
